In patent US20020045764A1, “Tubulin binding compounds (COBRA)” (Parker Hughes Institute, priority 1998, published 2002):

What was measured:
[1] = tested on: zebrafish (ZF) (Danio rerio) embryos; experiment: Zebrafish embryo model, cell division and development; format: in vivo
Experimental: ZF eggs were removed from their chorions by mild digestion in 1% Trypsin-EDTA (Sigma) for 10 minutes at 28.5° C. (Standard temperature—ST), washed three times in “egg water”^15-16 and twice in “embryonic medium” (EM)^15-16. The dechorionated two-cell stage cleaving eggs/embryos were transferred to the 24-well plastic cell culture plates (Costar, City, State) filled with EM or Hank's Balanced Salt Saline (HBSS, Gibco, City, State). Dechorionated embryos (10-12 per well) were exposed to the drugs at a constant ST for 0.5-24 hours. The final volume of the media in each well was 500 μL. All reference as well as test compounds were used at concentrations ranging from 10 μM to 4 mM. The title compounds were dissolved in DMSO and then diluted serially with the incubation medium. The final concentration of DMSO in the wells was 1.2% (with the exception of the etoposide treatment where it was 3%). The sham-treated control embryos were incubated in EM or HBSS in the presence of 1.2% (or 3%) DMSO.
Observations of cell division and development of the ZF embryos were carried out using a SMZ-10A stereo microscope (Nicon, City, State), once every 30 minutes within the first 3 hours of incubation and at 6, 12 and 24 hours, as well. […] The stereo microscope was fitted with a specially designed transparent heating tray in order to keep embryos at ST during observations. Pictures of the embryos were taken with a H-III Photomicrographic System (Nicon) using Ektachrome 64X film (Kodak, Rochester, N.Y.).

U87 = experiment: MTT assay; format: cell-based, human; conditions: 24-36 hours
Experimental: (§1) The antiproliferative activity of […] and the control mono-THF containing compounds 8.2, 8.3, and 8.4 was examined against a panel of 5 different human tumor cell lines using standard MTT (3-[4,5-dimethylthiazol-2-yl]-2,5-diphenyl tetrazolium bromide) assays^18 (Boehringer Mannheim Corp., Indianapolis, Ind.).
(§2) Briefly, exponentially growing brain tumor cells were seeded into a 96-well plate at a density of 2.5×10^4 cells/well and incubated for 36 hours at 37° C. prior to drug exposure. On the day of treatment, culture medium was carefully aspirated from the wells and replaced with fresh medium containing the test or control compounds at concentrations ranging from 0.1 to 250 μM. Triplicate wells were used for each treatment. The cells were incubated with the various compounds for 24-36 hours at 37° C. in a humidified 5% CO2 atmosphere. To each well, 10 μl of MTT (0.5 mg/ml final concentration) was added and the plates were incubated at 37° C. for 4 hours to allow MTT to form formazan crystals by reacting with metabolically active cells . The formazan crystals were solubilized overnight at 37° C. in a solution containing 10% SDS in 0.01 M HCl. The absorbence of each well was measured in a microplate reader (Labsystems) at 540 nm and a reference wavelength of 690 nm. To translate the OD 540 values into the number of live cells in each well, the OD540 values were compared to those on standard OD540-versus-cell number curves generated for each cell line. The percent survival was calculated using the formula: % survival=Live cell number[test]×100/Live cell number[control].
(§3) IC50 values were calculated by non-linear regression analysis using an Graphpad Prism software version 2.0 (Graphpad Software, Inc., San Diego, Calif.).
(§4) The following human cancer cell lines were used in the present study: BT-20, breast cancer; MDA-MB-231, breast cancer; PC3, prostate cancer; U87 and U373, glioblastoma; NALM-6, B-lineage acute lymphoblastic leukemia. These cell lines were obtained from American Type Culture Collection (Manassas, Va.) and maintained as continuous cell lines in Dulbecco's modified Eagles's medium supplemented with 10% fetal bovine serum and antibiotics.

MDA-MB-231 = experiment: MTT assay; format: cell-based, human; conditions: 24-36 hours
Experimental: as §1, §2, §3, §4

NALM-6 = experiment: MTT assay; format: cell-based, human; conditions: 24-36 hours
Experimental: as §1, §2, §3, §4

PC-3 = experiment: MTT assay; format: cell-based, human; conditions: 24-36 hours
Experimental: as §1, §2, §3, §4

SQ20B = experiment: MTT assay; format: cell-based, human; conditions: 24-36 hours
Experimental: as §1, §2, §3

U373 brain tumor cells [2] = experiment: Cytotoxicity by confocal microscopy (tubulin immunofluorescence); format: cell-based, human
Experimental: (§5) Cells were incubated at 37° C. for the indicated time periods with the title compounds. At the end of the incubation, cells were washed twice with PBS and fixed in 2% paraformaldehyde. The cells were permeabilized and non-specific binding sites were blocked with 2.5% BSA in PBS containing 0.1% Triton X-100 for 30 minutes. Tubulin expression was examined by immunofluorescence using a monoclonal antibody against α-tubulin (Sigma Chemical Co, St. Louis, Mo.) at a dilution of 1:1000 and an anti-mouse IgG conjugated to FITC. Cells were washed in PBS and counterstained with toto-3 (Molecular Probes Inc., Eugene, Oreg.) for 10 minutes at a dilution of 1:1000. Cells were washed again with PBS and the coverslips were mounted with Vectashield (Vector Labs, Burlingame, Calif.) and viewed with a confocal microscope (Bio-Rad MRC 1024) mounted in a Nikon Labhophot upright microscope. Digital images were saved on a Jaz disk and processed with Adobe Photoshop software (Adobe Systems, Mountain View, Calif.).
(§6) The ultrastructural changes in human breast and glioblastoma cancer cells treated with COBRA-1 or COBRA-2 were examined by confocal microscopy and by transmission electron microscopy, using methods previously reported^19.

[3] = tested on: BT-20 breast cancer cells; experiment: as above; format: cell-based, human
Experimental: as §5, §6

Bovine brain tubulin = target: T1, Bovine brain tubulin (Bos taurus, UniProt P81947+Q6B856); experiment: Tubulin turbidity assay (GTP-induced tubulin polymerization); format: biochemical; conditions: 1 mg/ml tubulin, 1 mM GTP, 37° C., OD 350 nm
T1 construct: purchased Sigma, St. Louis, Mo; host or cells: bovine brain (tissue-purified)
T1 sequence (P81947 whole entry): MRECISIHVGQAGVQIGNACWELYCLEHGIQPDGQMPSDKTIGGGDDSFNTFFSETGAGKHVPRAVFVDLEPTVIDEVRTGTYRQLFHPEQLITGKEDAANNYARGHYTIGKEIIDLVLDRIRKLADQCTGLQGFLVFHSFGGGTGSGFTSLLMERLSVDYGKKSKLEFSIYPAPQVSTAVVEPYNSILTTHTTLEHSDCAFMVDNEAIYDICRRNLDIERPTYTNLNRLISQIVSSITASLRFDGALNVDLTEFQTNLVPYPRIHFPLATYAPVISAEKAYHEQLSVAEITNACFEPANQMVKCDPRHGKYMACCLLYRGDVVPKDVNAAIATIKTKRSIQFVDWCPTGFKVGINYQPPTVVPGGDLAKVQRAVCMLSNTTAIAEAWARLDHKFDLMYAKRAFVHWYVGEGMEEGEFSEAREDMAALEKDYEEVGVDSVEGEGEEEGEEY
T1 sequence (Q6B856 whole entry): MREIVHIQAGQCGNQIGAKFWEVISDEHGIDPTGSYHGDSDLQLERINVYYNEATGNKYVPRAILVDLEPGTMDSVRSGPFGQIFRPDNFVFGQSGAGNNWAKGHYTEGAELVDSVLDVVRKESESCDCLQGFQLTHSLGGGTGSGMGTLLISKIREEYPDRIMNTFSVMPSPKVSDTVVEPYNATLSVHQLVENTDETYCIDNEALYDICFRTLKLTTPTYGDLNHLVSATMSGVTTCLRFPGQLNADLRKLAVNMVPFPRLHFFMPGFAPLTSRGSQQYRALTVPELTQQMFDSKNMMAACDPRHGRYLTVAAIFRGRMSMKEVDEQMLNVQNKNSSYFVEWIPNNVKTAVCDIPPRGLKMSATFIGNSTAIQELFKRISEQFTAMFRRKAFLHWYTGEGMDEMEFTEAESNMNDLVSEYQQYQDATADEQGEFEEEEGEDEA
Experimental: Bovine brain tubulin (Sigma, St. Louis, Mo.) was used in standard turbidity assays to test the effects of compounds COBRA-1 and COBRA-2 as well as control compounds on GTP-induced tubulin polymerization. Compounds (in 1% DMSO) were added to tubulin (1 mg/ml, 0.1M MES, 1 mM EGTA, 0.5 mM MgCl2, 0.1 mM EDTA, 2.5M glycerol, 1 μg/ml leupeptin, 1 μg/ml aprotinin, pH 6.5) followed by stimulation of polymerization with 1 mM GTP at 2 minutes and 1 mM taxol at 30 minutes. Optical density was measured using a Becton Dickinson UV spectrophotometer (350 nm) using a thermostated cuvette holder to keep the reaction at 37° C. Readings obtained from the spectro-photometer were standardized by subtracting the background absorbance of the compound in water from the sample reading following drug addition.
To test the latitude of the structure at the opposite end of the molecule from the long chain (head region), three new COBRA compounds were synthesized according to the schemes shown below: COBRA-3, COBRA-4, and COBRA-5. Each of these compounds was then tested for tubulin depolymerization activity, using the tubidity assay described in the Examples above.
Each of these compounds was assayed for effects on GTP-dependent tubulin polymerization, using the methods described above.

Nalm-6 leukemia cells = experiment: Transmission electron microscopy; format: cell-based, human; set-up: dose or concentration left out as unconfirmed
human tumor cell lines = experiment: MTT assays, panel of human tumor cell lines (overall statement); format: cell-based; conditions: 0.1 to 250 μM
Experimental: as §1
as §2, with “The formazan crystals were solubilized overnight at 37° C. in a solution containing 10% SDS in 0.01 M HCl.” left out, “To translate the OD 540 values into the number of live cells in each well, the OD540 values were compared to those on standard OD540-versus-cell number curves generated for each cell line.” left out, “number[control]. […]” for “number[control].”

U373 brain tumor cells [4] = experiment: Two-photon confocal laser scanning microscopy, DiA-labeled cells; format: cell-based, human; conditions: for cell morphology: U373, 100 μM
Experimental: In some experiments, COBRA-1 treated brain tumor cells were labeled with the membrane dye DiA and imaged using multiphoton microscopy. The individual tumor cells were imaged 1 hour before adding 100 μM COBRA- 1. The total imaging period was 3 hours.
U373 brain tumor cells were labeled with the membrane dye DiA and imaged using two-photon microscopy.
Arrows denote membrane ruffles formed in the direction that the cell is crawling. Arrowheads denote the trailing edge or the edge where the cell is retracting. The cell was imaged 1 hour before adding 100 μM DDE261 (FIG. 9A). […] The cell continued to shrink throughout the 3 hour imaging period (FIGS. 9E and 9F). The white material in the color photographs is the dye, DiA. The Scale Bar denotes 20 microns.

CC[C@]1(O)C[C@H]2CN(CCc3c([nH]c4ccccc34)[C@@](C(=O)OC)(c3cc4c(cc3OC)N(C=O)[C@H]3[C@@](O)(C(=O)OC)[C@H](OC(C)=O)[C@]5(CC)C=CCN6CC[C@]43[C@@H]65)C2)C1 [vincristine, reference compound]
effect on ZF embryos ([1]; 100 μM in EM or HBSS): rapid total cell division blockade, cell fusion and developmental arrest | time until two-cell stage embryos stopped cleaving ([1]; 100 μM in EM or HBSS): ≤ 15 min

OC(CSOOc1ccccc1)C1CCC(COCc2ccccc2)O1 (centres unmarked) [Compound 8.2]
IC50 (U87; Homo sapiens, U-87 MG): > 250 µM | IC50 (MDA-MB-231; Homo sapiens): > 250 µM | IC50 (NALM-6; Homo sapiens): > 250 µM | IC50 (PC-3; Homo sapiens): > 250 µM | IC50 (SQ20B; Homo sapiens): > 250 µM

OCC(O)[C@H]1CC[C@H](CO)O1 (some centres unmarked) [Compound 8.4]
IC50 (U87; Homo sapiens, U-87 MG): > 250 µM | IC50 (MDA-MB-231; Homo sapiens): > 250 µM | IC50 (NALM-6; Homo sapiens): > 250 µM | IC50 (PC-3; Homo sapiens): > 250 µM | IC50 (SQ20B; Homo sapiens): > 250 µM

C=CCC[C@H](O)[C@H]1CC[C@H]([C@H](O)CCCCCCCCCCCC)O1 [COBRA-2]
cell morphology / microtubules (U373 brain tumor cells [2]; U373, 100-200 μM): cell death with nuclear fragmentation and complete loss of microtubule formation | cell morphology / microtubules (U373 brain tumor cells [2]; U373, 24 hours (FIG. 10E)): the cells shrink and the microtubules become less organized | cell morphology / microtubules ([3]; BT-20, 100-200 μM): cell death with nuclear fragmentation and complete loss of microtubule formation | cell morphology / microtubules ([3]; BT-20, 24 hours (FIG. 10B)): the cells shrink and the microtubules become less organized | effect on GTP-dependent tubulin polymerization (turbidity) (Bovine brain tubulin): caused partial depolymerization of tubulin and inhibited its polymerization in the presence of GTP

CCCCCCCCCCCC[C@@H](O)[C@H]1CC[C@H](CO)O1 [COBRA-1]
ultrastructural changes (Nalm-6 leukemia cells): nuclear fragmentation, chromatin condensation, and formation of multiple autophagosomes, consistent with apoptosis | effect on ZF embryo ([1]; 200 μM, 30 minutes): start of cell fusion | effect on ZF embryo ([1]; 200 μM, 60 minutes): cell division blockade, total fusion and developmental arrest | effect on ZF embryo ([1]; 400 μM, 30 minutes): deterioration of cell division and start of cell fusion | effect on ZF embryo ([1]; 400 μM, 60 minutes): cell division blockade, total fusion and developmental arrest | effect on two-cell stage ZF embryos ([1]; 200 and 400 μM): developed normally for 30 minutes, up to the 8-cell stage, and then showed an immediate arrest of proliferation followed by cell fusion | IC50 (U87): 107 µM | IC50 (MDA-MB-231): 77 µM | IC50 (NALM-6): 49 µM | IC50 (PC-3): 171 µM | inhibition of all cell lines (human tumor cell lines): inhibited by COBRA-1 in a dose-dependent fashion | cell morphology (U373 brain tumor cells [4]; after 1 hour): only trailing edges are present | cell morphology (U373 brain tumor cells [4]; within 40 minutes of drug addition): only one membrane ruffle is still evident | onset of induced apoptosis after exposure (U373 brain tumor cells [4]; tumor cells (U373)): approximately 1 hour | time to total destruction (U373 brain tumor cells [4]; tumor cells (U373)): ≤ 24 h | cell morphology / microtubules (U373 brain tumor cells [2]; U373, 100 μM): induces abnormal tubulin structures | cell morphology / microtubules (U373 brain tumor cells [2]; U373, 200 μM): cell death with nuclear fragmentation and complete loss of microtubule formation | cell morphology / microtubules ([3]; BT-20, 100 μM, 24 hours): the cells shrink and the microtubules become less organized | cell morphology / microtubules ([3]; BT-20, 200 μM): cell death with nuclear fragmentation and complete loss of microtubule formation | IC50 (SQ20B): 140 µM | effect on GTP-dependent tubulin polymerization (turbidity) (Bovine brain tubulin): caused partial depolymerization of tubulin and inhibited its polymerization in the presence of GTP

CN(Cc1cnc2nc(N)nc(N)c2n1)c1ccc(C(=O)N[C@@H](CCC(=O)O)C(=O)O)cc1 [methotrexate, reference compound]
effect on gastrulation ([1]; 1-4 mM): failed to gastrulate | effect on cell division during cleavage and blastula stages ([1]; by 4 hours of incubation): no visible effect

CC(=O)O[C@H]1C(=O)[C@@]2(C)[C@H]([C@H](OC(=O)c3ccccc3)[C@]3(O)C[C@H](OC(=O)[C@H](O)[C@@H](NC(=O)c4ccccc4)c4ccccc4)C(C)=C1C3(C)C)[C@]1(OC(C)=O)CO[C@@H]1C[C@@H]2O [paclitaxel, reference compound]
effect on ZF embryos ([1]; 400 μM in EM): developmental abnormalities after 90 minutes of exposure

CCCCCCCCCCCC[C@@H](O)[C@H]1CC[C@H]([C@@H](O)CO)O1 [COBRA-4]
effect on GTP-dependent tubulin polymerization (turbidity) (Bovine brain tubulin): caused partial depolymerization of tubulin and completely inhibited its polymerization in the presence of GTP

C[C@@H](O)[C@H]1CC[C@H](CO)O1 [Compound 8.3]
IC50 (U87; Homo sapiens, U-87 MG): > 250 µM | IC50 (MDA-MB-231; Homo sapiens): > 250 µM | IC50 (NALM-6; Homo sapiens): > 250 µM | IC50 (PC-3; Homo sapiens): > 250 µM | IC50 (SQ20B; Homo sapiens): > 250 µM
